Source: patent publication US20100267561A1, “HERBICIDAL PYRIDAZINONE DERIVATIVES” (priority 2007, published 2010)

What was measured:
Format in all cases: in vivo
[1] = test system: chickweed (Stellaria media); test: Test B postemergence plant response; conditions: for Chickweed plant response rating: 8 g ai/ha, postemergence, 0-100 scale; for Plant response rating, Chickweed: Postemergence
Method in brief: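 Test compounds were applied postemergence to plants 2 to 18 cm tall (1- to 4-leaf stage). After 13 to 15 days in a greenhouse, each species was visually compared with untreated controls and rated 0 (no effect) to 100 (complete control).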

[2] = test system: yellow nutsedge (Cyperus esculentus); test: Test B pre-/postemergence plant response; conditions: for Nutsedge, Yellow plant response rating: 8 g ai/ha
Method in brief: (§1)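 Seeds were sown and sprayed preemergence, while plants at 2 to 18 cm (1- to 4-leaf stage) got postemergence sprays. Compounds were formulated in a non-phytotoxic solvent mixture with surfactant. After 13 to 15 days in a greenhouse, injury was rated visually against untreated controls, 0 (no effect) to 100 (complete control).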

[3] = test system: cocklebur (Xanthium strumarium); test: Test B pre-/postemergence plant response; conditions: for Cocklebur plant response rating: 8 g ai/ha
Method in brief: as §1

[4] = test system: bermudagrass (Cynodon dactylon); test: Test B pre-/postemergence plant response; conditions: for Bermudagrass plant response rating: 8 g ai/ha
Method in brief: as §1

[5] = test system: pigweed (Amaranthus retroflexus); test: Test A pre-/postemergence plant response
Method in brief: (§2)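 Seeds sown in loam–sand blend; test chemicals in non-phytotoxic solvent with surfactant applied preemergence as directed soil spray and, concurrently, postemergence to plants 2–10 cm tall at one- to two-leaf stage. Greenhouse ~10 days, then visual injury rating vs untreated controls on 0–100 scale (0 = no effect, 100 = complete control).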

[6] = test system: velvetleaf (Abutilon theophrasti); test: Test A pre-/postemergence plant response
Method in brief: as §2

[7] = test system: large crabgrass (Digitaria sanguinalis); test: Test A pre-/postemergence plant response
Method in brief: as §2

[8] = test system: morningglory (Ipomoea coccinea); test: Test A pre-/postemergence plant response
Method in brief: as §2

[9] = test system: wheat (Triticum aestivum); test: Test A pre-/postemergence plant response
Method in brief: as §2

[10] = test system: barnyardgrass (Echinochloa crus-galli); test: Test A pre-/postemergence plant response
Method in brief: as §2

corn (Zea mays) = test: Test A pre-/postemergence plant response
Method in brief: as §2

[11] = test system: giant foxtail (Setaria faberi); test: Test A pre-/postemergence plant response
Method in brief: as §2

[12] = 31 g ai/ha, scale 0 to 100, 0 no effect, 100 complete control
[13] = 62 g ai/ha, scale 0 to 100, 0 no effect, 100 complete control
[14] = Postemergence, 16 g ai/ha, scale 0 to 100
[15] = Postemergence, 31 g ai/ha, scale 0 to 100, 0 no effect, 100 complete control
[16] = Postemergence, 62 g ai/ha, scale 0 to 100, 0 no effect, 100 complete control
[17] = Preemergence, 16 g ai/ha, scale 0 to 100 (0 no effect, 100 complete control)
[18] = Preemergence, 31 g ai/ha, 0 to 100 scale, 0 no effect, 100 complete control
[19] = Preemergence, 62 g ai/ha, scale 0 to 100
[20] = Preemergence, scale 0 to 100 (0 no effect, 100 complete control)
[21] = Postemergence, 31 g ai/ha, 0 to 100 scale (0 no effect, 100 complete control)
[22] = Postemergence, 125 g ai/ha, 0 to 100 scale, 0 no effect, 100 complete control
[23] = Preemergence, 31 g ai/ha, 0 to 100 scale, 0 is no effect, 100 is complete control
[24] = Preemergence, 125 g ai/ha, 0 to 100 scale (0 no effect, 100 complete control)

Cc1cc(-c2ccc(Cl)cc2)nn1-c1c(OS(C)(=O)=O)cnn(C)c1=O [Compound 36]
Chickweed plant response rating [1]: 0 | Plant response rating, Chickweed ([1]; 16 g ai/ha, scale 0 to 100): 0 | Plant response rating, Chickweed [1, 12]: 0 | Plant response rating, Chickweed [1, 13]: 0 | Nutsedge, Yellow plant response rating ([2]; postemergence, 0-100 scale): 0 | Plant response rating, Nutsedge, Yellow [2, 14]: 0 | Plant response rating, Nutsedge, Yellow [2, 15]: 0 | Plant response rating, Nutsedge, Yellow [2, 16]: 0 | Plant response rating, Nutsedge, Yellow [2, 17]: 0 | Plant response rating, Nutsedge, Yellow [2, 18]: 0 | Plant response rating, Nutsedge, Yellow [2, 19]: 0 | Nutsedge, Yellow plant response rating ([2]; Preemergence, scale 0 to 100): 0 | Cocklebur plant response rating ([3]; postemergence, 0-100 scale): 0 | Plant response rating, Cocklebur [3, 14]: 0 | Plant response rating, Cocklebur [3, 15]: 0 | Plant response rating, Cocklebur [3, 16]: 0 | Plant response rating, Cocklebur [3, 17]: 0 | Plant response rating, Cocklebur [3, 18]: 0 | Plant response rating, Cocklebur [3, 19]: 0 | Cocklebur plant response rating ([3]; Preemergence, scale 0 to 100): 0 | Bermudagrass plant response rating ([4]; postemergence, 0-100 scale): 40 | Plant response rating, Bermudagrass [4, 14]: 80 | Plant response rating, Bermudagrass [4, 15]: 100 | Plant response rating, Bermudagrass [4, 16]: 100 | Bermudagrass plant response rating [4, 20]: 98 | Plant response rating, Bermudagrass [4, 17]: 100 | Plant response rating, Bermudagrass [4, 18]: 100 | Plant response rating, Bermudagrass [4, 19]: 100 | Plant response rating, Pigweed [5, 21]: 0 | Plant response rating, Pigweed [5, 22]: 10 | Plant response rating, Pigweed [5, 23]: 0 | Plant response rating, Pigweed [5, 24]: 30 | Plant response rating, Velvetleaf [6, 21]: 0 | Plant response rating, Velvetleaf [6, 22]: 0 | Plant response rating, Velvetleaf [6, 23]: 0 | Plant response rating, Velvetleaf [6, 24]: 0 | Plant response rating, Crabgrass, Large [7, 21]: 80 | Plant response rating, Crabgrass, Large [7, 22]: 90 | Plant response rating, Crabgrass, Large [7, 23]: 70 | Plant response rating, Crabgrass, Large [7, 24]: 100 | Plant response rating, Morningglory [8, 22]: 0 | Plant response rating, Morningglory [8, 23]: 0 | Plant response rating, Morningglory [8, 24]: 0 | Plant response rating, Wheat [9, 21]: 0 | Plant response rating, Wheat [9, 22]: 60 | Plant response rating, Wheat [9, 23]: 50 | Plant response rating, Wheat [9, 24]: 90 | Plant response rating, Barnyardgrass [10, 21]: 80 | Plant response rating, Barnyardgrass [10, 22]: 100 | Plant response rating, Barnyardgrass [10, 23]: 90 | Plant response rating, Barnyardgrass [10, 24]: 100 | Plant response rating, Corn (corn (Zea mays); [21]): 50 | Plant response rating, Corn (corn (Zea mays); [22]): 80 | Plant response rating, Corn (corn (Zea mays); [23]): 50 | Plant response rating, Corn (corn (Zea mays); [24]): 80 | Plant response rating, Foxtail, Giant [11, 21]: 90 | Plant response rating, Foxtail, Giant [11, 22]: 90 | Plant response rating, Foxtail, Giant [11, 23]: 100 | Plant response rating, Foxtail, Giant [11, 24]: 100

CCc1cc(-c2ccc(Cl)cc2)nn1-c1c(OS(C)(=O)=O)cnn(C)c1=O [Compound 39]
Chickweed plant response rating [1]: 0 | Plant response rating, Chickweed ([1]; 16 g ai/ha, scale 0 to 100): 0 | Plant response rating, Chickweed [1, 12]: 0 | Plant response rating, Chickweed [1, 13]: 0 | Nutsedge, Yellow plant response rating ([2]; postemergence, 0-100 scale): 0 | Plant response rating, Nutsedge, Yellow [2, 14]: 0 | Plant response rating, Nutsedge, Yellow [2, 15]: 0 | Plant response rating, Nutsedge, Yellow [2, 16]: 0 | Plant response rating, Nutsedge, Yellow [2, 17]: 0 | Plant response rating, Nutsedge, Yellow [2, 18]: 0 | Plant response rating, Nutsedge, Yellow [2, 19]: 0 | Nutsedge, Yellow plant response rating ([2]; Preemergence, scale 0 to 100): 0 | Cocklebur plant response rating ([3]; postemergence, 0-100 scale): 0 | Plant response rating, Cocklebur [3, 14]: 0 | Plant response rating, Cocklebur [3, 15]: 0 | Plant response rating, Cocklebur [3, 16]: 0 | Plant response rating, Cocklebur [3, 17]: 0 | Plant response rating, Cocklebur [3, 18]: 0 | Plant response rating, Cocklebur [3, 19]: 0 | Cocklebur plant response rating ([3]; Preemergence, scale 0 to 100): 0 | Bermudagrass plant response rating ([4]; postemergence, 0-100 scale): 0 | Plant response rating, Bermudagrass [4, 14]: 60 | Plant response rating, Bermudagrass [4, 15]: 75 | Plant response rating, Bermudagrass [4, 16]: 95 | Bermudagrass plant response rating [4, 20]: 0 | Plant response rating, Bermudagrass [4, 17]: 90 | Plant response rating, Bermudagrass [4, 18]: 95 | Plant response rating, Bermudagrass [4, 19]: 98 | Plant response rating, Pigweed [5, 21]: 0 | Plant response rating, Pigweed [5, 22]: 0 | Plant response rating, Pigweed [5, 23]: 0 | Plant response rating, Pigweed [5, 24]: 0 | Plant response rating, Velvetleaf [6, 21]: 0 | Plant response rating, Velvetleaf [6, 22]: 0 | Plant response rating, Velvetleaf [6, 23]: 0 | Plant response rating, Velvetleaf [6, 24]: 0 | Plant response rating, Crabgrass, Large [7, 21]: 60 | Plant response rating, Crabgrass, Large [7, 22]: 100 | Plant response rating, Crabgrass, Large [7, 23]: 60 | Plant response rating, Crabgrass, Large [7, 24]: 100 | Plant response rating, Morningglory [8, 21]: 0 | Plant response rating, Morningglory [8, 22]: 0 | Plant response rating, Morningglory [8, 23]: 0 | Plant response rating, Morningglory [8, 24]: 0 | Plant response rating, Wheat [9, 21]: 40 | Plant response rating, Wheat [9, 22]: 80 | Plant response rating, Wheat [9, 23]: 40 | Plant response rating, Wheat [9, 24]: 80 | Plant response rating, Barnyardgrass [10, 21]: 100 | Plant response rating, Barnyardgrass [10, 22]: 100 | Plant response rating, Barnyardgrass [10, 23]: 100 | Plant response rating, Barnyardgrass [10, 24]: 100 | Plant response rating, Corn (corn (Zea mays); [21]): 70 | Plant response rating, Corn (corn (Zea mays); [22]): 100 | Plant response rating, Corn (corn (Zea mays); [23]): 30 | Plant response rating, Corn (corn (Zea mays); [24]): 90 | Plant response rating, Foxtail, Giant [11, 21]: 90 | Plant response rating, Foxtail, Giant [11, 22]: 100 | Plant response rating, Foxtail, Giant [11, 23]: 90 | Plant response rating, Foxtail, Giant [11, 24]: 100
